# Reference: patent US5545647A, “3-phenylpyrrolidine derivatives” (Mitsubishi Chemical Corporation, priority 1994, dated 1996)
# Test system: Phosphodiesterase (PDE) IV
# Assay: Action to Phosphodiesterase (PDE) IV Enzyme Activities (3H-cAMP hydrolysis, enzyme from U-937 cells)
# Format: biochemical
# Settings: human histiocytic lymphoma (U-937) cytoplasm fraction enzyme; 0.4 μM 3H-cAMP; pH 8.0; 15 minutes at 30° C.; read-out: PDE IV inhibitory activity IC50
# Description: Action to Phosphodiesterase (PDE) IV Enzyme Activities
# Enzyme was partialy purified from human histiocytic lymphoma(U-937) cytoplasm fraction by means of the Q-sepharose column according to the method of Nicholson and collaborators [Br. J. Pharmacol., 97, 889 (1989)], and was reacted in a solution of 0.1 mg/ml BSA (bovine serum albumin), 1 mM EDTA (ethylenediaminetetra acetic acid), 5 mM MgCl2 and 50 mM Tris-buffer (pH 8.0) for 15 minutes at 30° C. using 0.4 μM ^3 H-cAMP as substrate according to the method of Hidaka and collaborators [Biochem. Med., 10, 301 (1974)]. ^3 H-5'-AMP generated was separated by means of the cation exchange column, and the enzyme activity was determined by measuring a radioactivity amount.
# A test compound was added. After incubation for 15 minutes at 30° C., the substrate was added. Inhibition ratios were derived for respective concentrations assuming that the reaction without the test compound was 100%. By using the probit analysis, the concentration (IC50) showing the inhibition rate of 50% was derived.
row,SMILES,IC50 [nM]
1,"COc1ccc(C2CCN(C(=O)OCc3cccnc3)C2)cc1OC1CCCC1 (single isomer, unassigned; (-)) [Compound No. 48, (-)-3-(3-cyclopentyloxy-4-methoxyphenyl)-1-(3-pyridylmethoxycarbonyl) pyrrolidine]",1.1
2,COc1ccc(C2CCN(C(=O)OCc3ccccc3)C2)cc1OC1CCCC1 (centres unmarked) [compound 3],6
3,CCCCOC(=O)N1CCC(c2ccc(OC)c(OC3CCCC3)c2)C1 (centres unmarked) [compound 6],6
4,COc1ccc(C2CCN(C(=O)OCc3ccc[n+]([O-])c3)C2)cc1OC1CCCC1 (centres unmarked) [compound 17],23
5,COc1ccc(C2CCN(C(=O)OCc3ccncc3)C2)cc1OC1CCCC1 (centres unmarked) [compound 19],3.8
6,COc1ccc(C2CCN(C(=O)OCc3ccccn3)C2)cc1OC1CCCC1 (centres unmarked) [compound 24],2.3
7,COc1ccc(C2CCN(C(=O)OCc3cccc[n+]3[O-])C2)cc1OC1CCCC1 (centres unmarked) [compound 26],8.8
8,COc1cc2c(cc1OC)CN(C(=O)N1CCC(c3ccc(OC)c(OC4CCCC4)c3)C1)CC2 (centres unmarked) [compound 32],25
9,COc1ccc(C2CCN(C(=O)OCc3ccnc(Cl)c3)C2)cc1OC1CCCC1 (centres unmarked) [compound 37],19
10,COc1ccc(C2CCN(C(=O)OCc3ccc(Cl)nc3)C2)cc1OC1CCCC1 (centres unmarked) [compound 38],23

# The remaining compounds from weak to strong by IC50, led by results:
row,IC50 [nM],SMILES
1,300,"COc1ccc(C2CNC(=O)C2)cc1OC1CCCC1 (centres unmarked) [roliplam, reference compound]"
2,20,COc1ccc(C2CCN(C(=O)c3ccccc3)C2)cc1OC1CCCC1 (centres unmarked) [compound 7]
3,19,COc1ccc(C2CCN(C(=O)OC(C)(C)C)C2)cc1OC1CCOC1 (centres unmarked) [compound 8]
4,11,"CCOC(=O)N1CCC(c2ccc(OC)c(OC3CCCC3)c2)C1 (centres unmarked) [Compound No. 4, 3-(3-cyclopentyloxy-4-methoxyphenyl)-1-(ethoxycarbonyl) pyrrolidine]"
5,11,COc1ccc(C2CCN(C(=O)OCCc3ccccn3)C2)cc1OC1CCCC1 (centres unmarked) [compound 36]
6,10,COc1ccc(C2CCN(C(=O)OC(C)(C)C)C2)cc1OC1CCCC1 (centres unmarked) [Compound No. 1]
7,10,COc1ccc(C2CCN(C(=S)OCc3cccnc3)C2)cc1OC1CCCC1 (centres unmarked) [compound 40]
8,8,COc1ccc(C2CCN(C(=O)OCc3cccnn3)C2)cc1OC1CCCC1 (centres unmarked) [compound 42]
9,3.3,"COc1ccc(C2CCN(C(=O)OCc3cccnc3)C2)cc1OC1CCCC1 (racemic) [Compound No. 13, (±)-3-(3-cyclopentyloxy-4-methoxyphenyl)-l-(3pyridylmethoxycarbonyl) pyrrolidine]"

# Test system: PDE IV
# Assay: not given
# Settings: Adv. Second Messenger Phosphoprotein Res., 22, 1 (1988); cited from earlier work
row,SMILES,specific inhibition to PDE IV
1,"COc1ccc(C2CNC(=O)C2)cc1OC1CCCC1 (centres unmarked) [roliplam, reference compound]",specific inhibition to PDE IV
